Data taken from patent publication US20240196889A1, “USE OF DI- AND TRI[…] ACIDS IN THE PREVENTION OF BIOFILM FORMATION” (priority 2020, published 2024).

Columns and labels:
[1] = tested on: S. Typhimurium ATCC 14028; assay: Petri dish biofilm assay (CFU); format: cell-based, Salmonella enterica serovar Typhimurium; conditions: 100 μM, 48 h, 25° C.
Description: ONCs of S. Typhimurium ATCC 14028 were normalized to an OD595 of 3.2 and diluted 1/100 in a small (60 mm Ø) glass Petri dishes containing 10 ml of 1/20 TSB to which a final concentration of 100 μM agaric or the corresponding amount of DMSO was added. Around 12*10^7 ml^−1 cells were inoculated and incubated under static conditions at 25° C. for 48 h. Afterwards, the liquid above the biofilms was poured off and the biofilms were scraped off the bottom of the plate in 1 ml of PBS, passed through a syringe (25 G) and vortexed to break down the biofilm structure and ensure an homogenous suspension during dilution [Hermans et al. (2011). Journal of microbiological methods 84, 467-478]. The number of colony forming units (CFU) of biofilms was determined by plating.

[2] = tested on: S. Typhimurium ATCC 14028; assay: Microscopic analysis of fluorescently labelled biofilms; format: cell-based, Salmonella enterica serovar Typhimurium; conditions: 100 μM, 48 h
Description: ONCs of S. Typhimurium ATCC 14028 containing the pFPV25.1 plasmid encoding for constitutive GFPmut3 productions were normalized to an an OD595 of 3.2 and 20 μl was added to a glass bottom microwell dishes (35 mm Ø petri dish, 20 mm Ø microwell) containing 2 ml 1/20 TSB and 100 μg ml^−1 of ampicillin and a final concentration of 100 μM agaric or the corresponding amount of DMSO. Around 12*10^7 ml^−1 cells were inoculated and incubated under static conditions at 25° C. for 48 h. After incubation, the planktonic phase was gently poured off and the biofilm was washed with 1 ml PBS. Biofilms were visualized with […]

[3] = tested on: Salmonella genes related to biofilm formation; assay: Microtiter-plate-based GFP promoter fusion assay; format: cell-based, Salmonella Typhimurium ATCC 14028; conditions: 100 μM
Description: To unravel the mechanism by which agaric acid inhibits biofilm formation, an in house developed reporter GFP-promoter fusion library was screened. This library contains reporters for 130 Salmonella genes related to biofilm formation, including genes regulating matrix production, fimbriae and flagella synthesis, quorum sensing and c-di-GMP regulation (Table 2) [Robijns et al. (2014). Biofouling 30, 605-625.]. A time-lapse of the first 24 h of biofilm formation in microtiter plates was performed to identify genes that are differentially transcribed in the presence of 100 μM agaric acid. As these reporter fusions express the stable GFPmut3 variant as a fluorophore, the measured fluorescence values are the accumulation of fluorescence over time [Robijns et al. (2014). Biofouling 30, 605-625](FIG. 2).
1.5 μl of the reporter fusions' ONCs were transferred in three repeats to black polystyrene, clear-bottomed microtiter plates (Greiner bio-one 655096) containing 200 μl of 1/20 TSB with either a final concentration of 100 μM agaric or the corresponding amount of DMSO. Subsequently, the microtiter plates were incubated statically, at 25° C. for 24 h. Every 3 h, the fluorescence (excitation 488 nm, emission 511 nm) and absorbance at 600 nm (OD600) were measured using a Synergy MX multimode reader. For data analysis, blank measurements were subtracted from both the fluorescence (using a promoterless pFPV25 vector as control) and OD600. The ratio between the different OD600 values of the strains/conditions was used to normalize any effects on the fluorescence caused by growth differences in the bacteria. Significant differences in the level of fluorescence between treatment and control were determined using a two-tailed Student t-test (P<0.05).

motA deletion mutant = assay: Biofilm formation of motA deletion mutant; format: cell-based, Salmonella; conditions: addition of agaric acid to the deletion mutant
E. coli TG1 = assay: Antibiofilm assay (Calgary biofilm device); format: cell-based, Escherichia coli
Description: A static peg assay for the prevention of bacterial biofilm formation was used as described previously. A lid carrying 96 polystyrene pegs was fitted into a microtiter plate with a peg hanging into each well. Two-fold serial dilutions of the compounds in 100 μl liquid broth per well were prepared in the microtiter plate. Subsequently, an overnight culture was diluted 1:100 into the respective liquid broth, and 100 μl (˜10^6 cells) was added to each well of the microtiter plate, resulting in a total amount of 200 μl medium per well. After placing the lid on the microtiter plate, samples containing Salmonella, Pseudomonas or E. coli were incubated statically in TSB 1/20 for 48 h at 25° C., whereas S. aureus was incubated in undiluted TSB at 37° C. for 48 h. After incubation, the lid was removed from the microtiter plate and liquid culture was transferred to a new microtiter plate prior to determining the prior to determining the planktonic growth in each well via OD600 measurements using a Synergy MX multimode reader (Biotek, Winooski, VT). The pegs were washed once in 200 μl PBS and the remaining attached bacteria were stained for 30 min with 200 μl 0.1% crystal violet in an isopropanol-methanol-PBS solution (1:1:18). […] The OD570 of each well was measured using a Synergy MX multimode reader. Data was analysed using the GraphPad Prism 6 software.

P. aeruginosa PA14 = assay: Antibiofilm assay (Calgary biofilm device); format: cell-based, Pseudomonas aeruginosa
Description: (§1) A static peg assay for the prevention of bacterial biofilm formation was used as described previously. A lid carrying 96 polystyrene pegs was fitted into a microtiter plate with a peg hanging into each well. Two-fold serial dilutions of the compounds in 100 μl liquid broth per well were prepared in the microtiter plate. Subsequently, an overnight culture was diluted 1:100 into the respective liquid broth, and 100 μl (˜10^6 cells) was added to each well of the microtiter plate, resulting in a total amount of 200 μl medium per well. After placing the lid on the microtiter plate, samples containing Salmonella, Pseudomonas or E. coli were incubated statically in TSB 1/20 for 48 h at 25° C., whereas S. aureus was incubated in undiluted TSB at 37° C. for 48 h. After incubation, the lid was removed from the microtiter plate and liquid culture was transferred to a new microtiter plate prior to determining the prior to determining the planktonic growth in each well via OD600 measurements using a Synergy MX multimode reader (Biotek, Winooski, VT). The pegs were washed once in 200 μl PBS and the remaining attached bacteria were stained for 30 min with 200 μl 0.1% crystal violet in an isopropanol-methanol-PBS solution (1:1:18). Excess stain was washed off by placing the pegs in a 96-well plate filled with 200 μl distilled water per well. Afterwards, the pegs were air dried for 30 min and the dye bound to the adherent cells dissolved into 200 μl 30% glacial acetic acid. The OD570 of each well was measured using a Synergy MX multimode reader. Data was analysed using the GraphPad Prism 6 software.

S. aureus SH1000 = assay: Antibiofilm assay (Calgary biofilm device); format: cell-based, Staphylococcus aureus
Description: as §1

[4] = tested on: S. Typhimurium SL1344 (S1) in mixed-species biofilm with S2 and E1; assay: Mixed-species tolerance assay (CFU); format: cell-based, Salmonella Typhimurium and E. coli
Description: The monospecies and mixed-species biofilms were grown on petri dishes for 48 h at 25° C. as described above. The medium was then replaced by 5 ml PBS with either 0.25% H2O2 or 1 μM ciprofloxacin and the biofilms were incubated for an additional 1 h at 25° C. Subsequently, the biofilms were scraped off and plated out on solid LB agar plates for CFU determination. To differentiate between the strains, S1 was labelled with constitutive gfpmut3 on a plasmid, while S2 and E1 were labelled with plasmid-encoded constitutive dsRed.T4. Differences in colony shape and size allowed differentiation between S2 and E1 during CFU counting.

[5] = comparison of effective concentrations

CCCCCCCCCCCCCCCCC(C(=O)O)C(O)(CC(=O)O)C(=O)O (stereo not drawn) [Agaric acid, 2-hydroxynonadecane-1,2,3-tricarboxylic acid]
number of cells (CFU) attaching to bottom of glass petri dish [1]: significantly inhibits the number of Salmonella cells attaching to the surface
biofilm density by microscopy [2]: less dense compared to the control
transcription of class III flagellar genes flgM, flgK and motA [3]: significantly reduced
transcription of tdcA, flgB, fljB and fliC [3]: not decreased at consecutive points
transcription of flhDC ([3]; between 9 h and 15 h): increased compared to the control
transcription of csgB and adrA ([3]; first 24 h): not influenced
transcription of central biofilm regulatory genes CsgD and RpoS ([3]; first 24 h of biofilm formation): not downregulated
transcription of flagellar sigma factor fliA ([3]; from 12 h onwards): significantly inhibited
biofilm formation of motA deletion mutant (motA deletion mutant): did not further reduce biofilm formation
planktonic growth (OD600) (E. coli TG1): unaffected, except for an increase at the highest concentration
concentration at which significant biofilm inhibition already occurred (E. coli TG1; crystal violet staining): 12.5 µM
planktonic growth (OD600) (P. aeruginosa PA14): inhibits
biofilm inhibition versus planktonic growth inhibition (P. aeruginosa PA14; [5]): planktonic growth is reduced at lower concentrations than biofilm inhibition
biofilm formation (P. aeruginosa PA14; crystal violet staining): inhibits
biofilm inhibition versus planktonic growth inhibition at high concentrations (P. aeruginosa PA14; high concentrations of agaric acid): biofilm formation is inhibited to a higher extent than planktonic growth
planktonic growth (OD600) (S. aureus SH1000): inhibits
biofilm inhibition versus bactericidal effect (S. aureus SH1000; [5]): biofilm inhibition occurred already at a lower concentration than the bactericidal effect
biofilm formation (S. aureus SH1000; crystal violet staining, undiluted TSB, 37° C., 48 h): inhibits
enhanced tolerance of S1 in mixed-species conditions ([4]; 0.25% H2O2 or 1 μM ciprofloxacin, 1 h): completely abolished the enhanced tolerance of S1
number of S1 cells surviving antimicrobial treatment in mixed-species communities ([4]; in presence of agaric acid): lowest number of S1 cells surviving antimicrobial treatment
tolerance of remaining biofilm cells towards ciprofloxacin and H2O2 ([4]; preventive treatment, 0.25% H2O2 or 1 μM ciprofloxacin, 1 h): reduced the tolerance of the remaining biofilm cells
